Values belong to the molecule of their own block, whether it stands above or below them.
Legend:
TRPC5 [1] = molecular target: T1, TRPC5 (Homo sapiens, UniProt Q9UL62, V455M/Q573T); test: Fura-2 intracellular calcium assay in transfected HEK […] cells; type: cell-based; conditions: read-out: AM237 EC50
T1 construct: TRPC5-SYFP2 Q573T
T1 sequence (Q9UL62 1-973 V455M/Q573T): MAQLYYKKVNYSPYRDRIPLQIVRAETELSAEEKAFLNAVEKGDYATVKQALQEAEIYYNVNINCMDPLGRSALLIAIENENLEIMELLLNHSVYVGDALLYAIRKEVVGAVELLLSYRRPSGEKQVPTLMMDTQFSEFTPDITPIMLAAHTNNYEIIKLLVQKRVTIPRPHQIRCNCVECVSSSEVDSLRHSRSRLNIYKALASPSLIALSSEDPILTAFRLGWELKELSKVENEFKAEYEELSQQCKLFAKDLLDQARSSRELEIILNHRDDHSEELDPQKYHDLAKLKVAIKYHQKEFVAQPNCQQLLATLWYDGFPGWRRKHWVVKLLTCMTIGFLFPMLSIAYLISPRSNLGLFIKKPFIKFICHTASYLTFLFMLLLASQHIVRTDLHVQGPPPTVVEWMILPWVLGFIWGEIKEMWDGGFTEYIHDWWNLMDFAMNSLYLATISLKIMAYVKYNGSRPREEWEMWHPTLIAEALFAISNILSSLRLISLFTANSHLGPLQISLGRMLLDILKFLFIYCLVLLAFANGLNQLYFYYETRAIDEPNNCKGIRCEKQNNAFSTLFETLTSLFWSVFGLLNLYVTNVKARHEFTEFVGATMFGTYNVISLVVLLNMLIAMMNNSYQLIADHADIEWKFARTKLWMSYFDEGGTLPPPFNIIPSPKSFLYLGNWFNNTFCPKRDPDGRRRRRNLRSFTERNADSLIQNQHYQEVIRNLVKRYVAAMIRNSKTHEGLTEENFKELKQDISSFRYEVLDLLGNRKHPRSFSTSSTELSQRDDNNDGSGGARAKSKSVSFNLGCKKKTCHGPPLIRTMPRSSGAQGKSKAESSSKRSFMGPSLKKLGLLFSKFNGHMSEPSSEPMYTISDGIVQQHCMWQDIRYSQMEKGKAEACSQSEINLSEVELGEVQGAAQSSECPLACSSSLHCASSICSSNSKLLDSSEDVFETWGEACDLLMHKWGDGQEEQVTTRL

TRPC5 [2] = molecular target: T2, TRPC5 (Homo sapiens, UniProt Q9UL62, V455M); test: as above; type: cell-based
T2 construct: TRPC5-SYFP2, wild-type (contains the previously described V455M)
T2 sequence (Q9UL62 1-973 V455M): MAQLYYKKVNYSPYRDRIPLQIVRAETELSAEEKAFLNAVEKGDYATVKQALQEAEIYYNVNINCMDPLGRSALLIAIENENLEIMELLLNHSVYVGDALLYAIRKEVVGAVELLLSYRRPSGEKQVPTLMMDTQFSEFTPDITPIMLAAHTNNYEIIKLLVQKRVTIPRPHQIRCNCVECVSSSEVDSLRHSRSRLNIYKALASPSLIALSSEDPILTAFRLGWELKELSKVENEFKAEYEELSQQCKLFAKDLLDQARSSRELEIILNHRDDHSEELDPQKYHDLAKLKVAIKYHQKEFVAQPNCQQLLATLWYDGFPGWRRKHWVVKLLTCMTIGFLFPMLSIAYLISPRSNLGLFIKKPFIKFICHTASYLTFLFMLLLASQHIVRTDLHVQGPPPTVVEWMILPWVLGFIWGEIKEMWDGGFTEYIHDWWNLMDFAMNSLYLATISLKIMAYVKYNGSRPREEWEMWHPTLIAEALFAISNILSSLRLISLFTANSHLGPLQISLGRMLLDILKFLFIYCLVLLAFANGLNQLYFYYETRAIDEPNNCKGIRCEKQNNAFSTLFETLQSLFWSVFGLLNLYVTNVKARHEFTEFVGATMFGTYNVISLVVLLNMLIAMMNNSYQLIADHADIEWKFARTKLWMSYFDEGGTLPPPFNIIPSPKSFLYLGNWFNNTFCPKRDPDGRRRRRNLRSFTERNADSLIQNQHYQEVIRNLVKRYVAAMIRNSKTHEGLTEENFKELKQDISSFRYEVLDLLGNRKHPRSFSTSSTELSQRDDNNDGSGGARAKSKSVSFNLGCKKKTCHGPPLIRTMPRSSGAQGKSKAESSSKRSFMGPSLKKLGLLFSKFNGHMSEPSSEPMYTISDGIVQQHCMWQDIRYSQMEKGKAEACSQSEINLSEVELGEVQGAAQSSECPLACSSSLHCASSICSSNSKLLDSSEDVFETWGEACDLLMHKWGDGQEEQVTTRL

[3] = molecular target: T3, TRPC5 (human TRPC5:C5 channel) (Homo sapiens, UniProt Q9UL62, V455M); test: cryo-EM structure at […] Å; also inhibition of EA-activated channel in HEK […] calcium assay; type: cell-based
T3 construct: MBP-PreS-hTRPC5Δ766–975 (C-terminally truncated), homotetramer
T3 sequence (Q9UL62 1-765 V455M): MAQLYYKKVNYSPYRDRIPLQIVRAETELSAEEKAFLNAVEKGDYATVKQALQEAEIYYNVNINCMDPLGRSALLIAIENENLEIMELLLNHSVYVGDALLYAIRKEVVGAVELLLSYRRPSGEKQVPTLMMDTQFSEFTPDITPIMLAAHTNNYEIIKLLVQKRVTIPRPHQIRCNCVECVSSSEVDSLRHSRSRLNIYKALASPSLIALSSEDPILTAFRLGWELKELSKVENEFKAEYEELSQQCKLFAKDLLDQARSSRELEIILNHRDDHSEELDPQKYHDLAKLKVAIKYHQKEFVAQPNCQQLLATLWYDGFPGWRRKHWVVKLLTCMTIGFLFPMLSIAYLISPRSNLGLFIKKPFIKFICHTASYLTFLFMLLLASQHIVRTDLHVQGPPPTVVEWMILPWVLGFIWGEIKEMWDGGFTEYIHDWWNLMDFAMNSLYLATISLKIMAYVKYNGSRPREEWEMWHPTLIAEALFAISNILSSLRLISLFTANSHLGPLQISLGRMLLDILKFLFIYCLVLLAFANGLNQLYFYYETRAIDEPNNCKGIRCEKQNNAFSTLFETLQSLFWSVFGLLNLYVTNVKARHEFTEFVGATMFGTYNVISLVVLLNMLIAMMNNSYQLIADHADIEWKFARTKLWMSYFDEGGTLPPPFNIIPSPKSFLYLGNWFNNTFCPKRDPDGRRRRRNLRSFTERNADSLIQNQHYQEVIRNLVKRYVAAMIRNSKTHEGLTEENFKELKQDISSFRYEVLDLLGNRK

[4] = molecular target: the molecule itself; test: cryo-EM structure; purified TRPC5 in PMAL-C8 at 2 mg/ml with 100 µM Pico145 (also 1 mg/ml with 50 µM Pico145 or 20 µM ZnCl2); C4 symmetry, also refined with C1

Molecule: Cn1c(=O)n(CCCO)c(=O)c2c1nc(Oc1ccc(Cl)c(OC(F)(F)F)c1)n2Cc1ccc(Cl)cc1 [AM237]
EC50 (TRPC5 [1]): 110 nM
EC50 (TRPC5 [2]): 10.6 nM

IC50 [3]: 4 nM
Molecule: Cn1c(=O)n(CCCO)c(=O)c2c1nc(Oc1cccc(OC(F)(F)F)c1)n2Cc1ccc(Cl)cc1 [Pico145]

B1: MBP-PreS-hTRPC5(Δ766–975) (complex, human, UniProt Q9UL62 1-765, looked up)
chain: MAQLYYKKVNYSPYRDRIPLQIVRAETELSAEEKAFLNAVEKGDYATVKQALQEAEIYYNVNINCMDPLGRSALLIAIENENLEIMELLLNHSVYVGDALLYAIRKEVVGAVELLLSYRRPSGEKQVPTLMMDTQFSEFTPDITPIMLAAHTNNYEIIKLLVQKRVTIPRPHQIRCNCVECVSSSEVDSLRHSRSRLNIYKALASPSLIALSSEDPILTAFRLGWELKELSKVENEFKAEYEELSQQCKLFAKDLLDQARSSRELEIILNHRDDHSEELDPQKYHDLAKLKVAIKYHQKEFVAQPNCQQLLATLWYDGFPGWRRKHWVVKLLTCMTIGFLFPMLSIAYLISPRSNLGLFIKKPFIKFICHTASYLTFLFMLLLASQHIVRTDLHVQGPPPTVVEWMILPWVLGFIWGEIKEMWDGGFTEYIHDWWNLMDFAMNSLYLATISLKIMAYVKYNGSRPREEWEMWHPTLIAEALFAISNILSSLRLISLFTANSHLGPLQISLGRMLLDILKFLFIYCLVLLAFANGLNQLYFYYETRAIDEPNNCKGIRCEKQNNAFSTLFETLQSLFWSVFGLLNLYVTNVKARHEFTEFVGATMFGTYNVISLVVLLNMLIAMMNNSYQLIADHADIEWKFARTKLWMSYFDEGGTLPPPFNIIPSPKSFLYLGNWFNNTFCPKRDPDGRRRRRNLRSFTERNADSLIQNQHYQEVIRNLVKRYVAAMIRNSKTHEGLTEENFKELKQDISSFRYEVLDLLGNRK
notes: Transient Receptor Potential Canonical 5 (TRPC5), human, C-terminally truncated (Δ766–975), carries V455M from the PCR template TRPC5-SYFP2; A PreScission protease site (PreS) lies between MBP and TRPC5; MBP, PreS and the first 16 residues of TRPC5 were not resolved in the map; Homotetrameric channel in amphipol PMAL-C8; also called human TRPC5; TRPC5:C5 channel; not shown: MBP, N-terminal, kept
stoichiometry N [4]: 4

— publication PMC7683545, “Human TRPC5 structures reveal interaction of a xanthine-based TRPC1/4/5 inhibitor with a conserved lipid binding site” (Communications Biology, 2020)
